In patent US20250242170A1, “Methods and Systems for Improving Photodynamic Therapy by Increasing Depth of Penetration Without Concurrently Increasing Energy Deposition” (priority 2024, published 2025):

Experiments:
prostate neoplasia = assay: Use case: PDT and SONG laser in treatment of prostate neoplasia; settings: a few weeks after treatment
Glioblastoma multiforme = assay: Use case: PDT and SONG laser in treatment of glioblastoma multiforme; type: in vivo, human
Text: The process is further described within a use case scenario of treating a person diagnosed with glioblastoma multiforme. Glioblastoma multiforme is the most aggressive of the brain cancers characterized by rapid growth and extensions throughout the brain making it surgically incurable. Prognosis without treatment is usually 3 months and with maximum treatment only 18 months. The conventional treatment protocol is neurosurgical debulking, targeted and whole brain radiation, followed by 6 months of chemotherapy with Temodar. After these treatments have been exhausted and disease recurs the prognosis is very poor and short term.
The patient described in the stated use case received debulking neurosurgery, targeted radiation to the areas of visible mass, followed by whole brain radiation, and then 6 months of Temodar. After these treatments they suffered memory loss and emotional instability.
A month after completing their last cycle of chemotherapy, the patient received the SONG Laser-based photodynamic therapy in accordance with the present specification, using ICG as the photo-active compound. On days 1, 2, and 3 of the treatment, the patient received 50 mg of nanoscaled or liposomal ICG. On day 3 they were treated with a SONG laser device at 810 nm near infra-red with a primary beam power of 5 Watts. From the peak power measured after going through the beam expander and SONG generator of 3.5 Watts this was reduced 60% to a measured output power of 1.4 Watts. The treated laser was applied in a beam expanded to 25 mm to the whole brain transcutaneously for 12 minutes total duration, by slowly scanning the 25 mm beam systematically over the skull under which brain substance is located. […]
In the mentioned use case, an additional adjunct to the patient's PDT treatment included administering SONG Laser activated and guided very small embryonic-like (VSEL) stem cells 3 days before the PDT cycle began. […] This procedure with SONG Laser activated and guided VSELs was repeated 1 day before the PDT procedure, except with 2.7 times the quantity of VSELs.

[1] = same methylene blue + SONG laser protocol

Compound	reduction of PSA (prostate neoplasia; 50 mg orally and also intra-rectally, 1 h wait, SONG laser 660 nm, 80 mW output, through the perineum, 10 min, PSA of 16 before) [%]	PSA level after treatment (prostate neoplasia; PSA of 16 before, same methylene blue + SONG laser protocol)	adverse effects (prostate neoplasia; [1])	urinary symptoms (prostate neoplasia; [1])	MRI scan repeated, recurrence (Glioblastoma multiforme; 4 months after completing last chemotherapy, same ICG + SONG laser 810 nm protocol)	MRI scan, recurrence of Glioblastoma multiforme (Glioblastoma multiforme; a month after PDT, 50 mg nanoscaled or liposomal ICG on days 1, 2, 3, SONG laser 810 nm, 1.4 W output, whole brain, 12 min on two days, adjunct laser-activated VSELs)	memory and mood (Glioblastoma multiforme; over the next 2 months after the first MRI, same ICG + SONG laser protocol)
CN(C)c1ccc2nc3ccc(=[N+](C)C)cc-3sc2c1 [methylene blue, Methylene Blue]	50	8	no adverse effects	improvements in urinary symptoms	–	–	–
CC1(C)C(/C=C/C=C/C=C/C=C2\N(CCCCS(=O)(=O)O)c3ccc4ccccc4c3C2(C)C)=[N+](CCCCS(=O)(=O)[O-])c2ccc3ccccc3c21 [ICG, Indocyanine Green]	–	–	–	–	no evidence of recurrence	no evidence of recurrence	improvements in their memory and mood
